System: sensitised amphetamine response (hyperactivity) in mice
Assay: Sensitised behavioural response to amphetamine in mice
Format: in vivo
Conditions: Mus musculus; amphetamine-pretreated mice; s.c. 30 min before D-amphetamine 1.25 mg/kg challenge; Std. Dev. in brackets; read-out: Inhibition of the sensitised amphetamine response, ED50
Protocol: Subjects. Male NMRI mice (Charles River) weighing approx. 35 g are used. […] 12 mice are used pr experimental group.
Experimental procedure. […] For the 17 days between the last day of pre-treatment and the test day, the animals are kept in their homecage receiving the care as described above. The experiment is performed under normal light conditions in an undisturbed room. The mice are treated with test substance or vehicle and placed individually in the test cages for 30 min. […] 5×8 infrared light sources and photocells interspaced by 4 cm monitor the locomotor activity. The light beams cross the cage 1.8 cm above the bottom of the cage.
Administration of compounds.
Data analyses. The total counts obtained in the 30 min test are averaged pr animal group and used for calculation of drug effects in the following manner: The average motility induced by an amphetamine challenge in amphetamine-pretreated animals is used as the sensitised response. The average motility induced by a vehicle challenge to vehicle-pretreated animals is used as a baseline motility response. […] Similarly an ED50 for inhibiting baseline motility is calculated by expressed the motility response in vehicle-pretreated, vehicle-challenged, drug-treated animals relative to the baseline motility response. A therapeutic index value is subsequently calculated by dividing the first ED50 by the second.

Cc1nc(N2CCOCC2)nc(C)c1NC(=O)Cc1ccc(F)cc1 [N-(4,6-Dimethyl-2-morpholin-4-yl-pyrimidin-5-yl)-2-(4-fluoro-phenyl)-acetamide]
ED50: 0.4 mg/kg

From patent US20100256145A1, “USE OF KCNQ POTASSIUM CHANNEL OPENERS FOR REDUCING SYMPTOMS OF OR TREATING DISORDERS OR CONDITIONS WHEREIN THE DOPAMINERGIC SYSTEM IS DISRUPTED” (H. LUNDBECK A/S, priority 2007, published 2010)
